Measurements: patent US8901312B2, “Cyclic compound, method for producing cyclic compound, and method for modifying biological molecule” (JNC Corporation, priority 2010, dated 2014)
Like-named read-outs stand apart in the source and are kept apart here.

Tests used:
[1] = test system: azido-HaloTag protein (GST-HaloTag protein on GSH-Sepharose resin); assay: Fluorescence labeling of azido-HaloTag protein by SPDC reaction, SDS-PAGE fluorescence imaging; assay type: biochemical
HEK293 cells = assay: Cytotoxicity assay in living cells; assay type: cell-based; details: 0 to 80 μM, incubation overnight
Experimental: Finally, cytotoxicity assay of diyne 3 was performed in living cells. HEK293 cells were incubated and diyne 3 was added to the cells in a concentration of 0 to 80 μM, followed by incubation overnight. Morphological images of the cells after incubation, which were taken under a phase-contrast microscope and visualized with Adobe Photoshop CS2, are shown in FIG. 10.

[2] = test system: azido-glycoconjugates on the surface of HEK293 cells; assay: Fluorescence labeling of azido-glycoconjugates on the surface of living cells; assay type: cell-based

Compound | fluorescence labeling efficiency of azido-HaloTag protein ([1]; sequential SPDC reaction: diyne 3, wash, then TESRA-PEO3-azide (9)) | total labeling efficiency of TESRA-labeled HaloTag protein ([1]; simultaneous SPDC reaction with TESRA-PEO3-azide (9), relative to TESRA-HaloTag ligand (10) labeling taken as almost 100%) [%] | cytotoxicity (cell morphology, phase-contrast microscope) (HEK293 cells) | reaction time at which labeling efficiency became maximum ([2]; 40 μM diyne 3, HEK293 cells with azido-glycoconjugates, 0 to 48 minutes) | fluorescence labeling of cell surface azido-glycoconjugates (result in words) ([2]; HEK293 cells cultured with Ac4ManNAz) | fluorescence labeling of cell surface azido-glycoconjugates (result in words) [2]
C1#Cc2ccccc2C#Cc2ccccc21 [diyne 3, sym-dibenzo-1,5-cyclooctadiene-3,7-diyne] | approximately 45% | ~40 | did not show cytotoxicity | approximately 20 minutes | a reliable fluorescence signal was detected | 
O=C(NCCNC(=S)Nc1ccc2c(c1)C(=O)OC21c2ccc(O)cc2Oc2cc(O)ccc21)OC1Cc2ccccc2C#Cc2ccccc21 (stereo not drawn) [monoyne 22, 1-[2-{(11,12-didehydro-5,6-dihydrodibenzo[a,e]cycloocten-5-yl)oxycarbonylamino}ethyl]-3-(5-fluoresceinyl)thiourea] |  |  |  |  |  | substantial difference in fluorescence labeling efficiency between the SPDC reaction and the single click reaction was hardly observed
